Results taken from BindingDB's records for doi:10.1021/acschembio.6b00511 (Novartis Institutes For Biomedical Research, 2016).
“And” between values parts separate entries of the source, which are not always exact repeats. Equal values may be shown once.

Assays:
[1] = target: T1, Serine/threonine-protein kinase WNK1 [1-491] (Homo sapiens, UniProt Q9H4A3); test: WNK1 Mobility Shift Assay; conditions: pH 7.5
T1 construct: 1-491
Description: A mixture of fluorescein labeled OSR1 peptide substrate (Toray Research Center, Inc.) and ATP was prepared with final concentrations of 10 and 25 μM, respectively, in 7 μL of reaction buffer [20 mM HEPES Na (pH 7.5), 1 mM MnCl2, 0.01% Tween 20, and 2 mM DTT]. Compounds at final concentrations from 0.003 to 100 μM in 1 μL were added to the peptide/ATP mixture at a final DMSO concentration of 10%. The reaction was initiated by the addition of 2 μL of GST-WNK1 (1−491; Carna Biosciences) that was 86% pure at a final concentration of 25 nM in a 384-well plate. After incubation for 3 h at 25 °C, where 15% conversion of the substrate to the product was observed, 10 μL of a stop buffer containing 0.2% coating-3 reagent with 2 mM EDTA was added. For 800 μM ATP, the WNK1 assay was performed for 50 min at 25 °C, where 15% conversion of the substrate to the product was observed. Aliquots from each well were transferred onto a four-sipper chip on a Labchip3

[2] = target: T2, Serine/threonine-protein kinase WNK4 [1-444] (Homo sapiens, UniProt Q96J92); test: WNK In Vitro Radiometric Assays; conditions: pH 7.3
T2 construct: 1-444
T2 sequence (Q96J92 1-444): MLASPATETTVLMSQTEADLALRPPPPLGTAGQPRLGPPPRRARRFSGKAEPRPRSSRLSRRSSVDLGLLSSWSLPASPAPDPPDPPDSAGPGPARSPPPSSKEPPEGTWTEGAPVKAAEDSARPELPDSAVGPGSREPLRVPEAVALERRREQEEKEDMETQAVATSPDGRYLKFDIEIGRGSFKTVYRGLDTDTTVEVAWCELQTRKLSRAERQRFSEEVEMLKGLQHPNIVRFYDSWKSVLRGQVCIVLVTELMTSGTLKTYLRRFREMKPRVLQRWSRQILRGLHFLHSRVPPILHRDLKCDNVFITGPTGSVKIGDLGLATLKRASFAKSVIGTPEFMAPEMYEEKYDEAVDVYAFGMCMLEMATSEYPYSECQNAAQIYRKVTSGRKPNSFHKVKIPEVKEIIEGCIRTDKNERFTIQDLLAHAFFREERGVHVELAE
Description: (§1) The assay utilized 5 to 10 nM of WNK1−4 protein compared to 25 nM used for mobility shift assay, enabling a more accurate comparison of selectivity among potent inhibitors. Assays measured the incorporation of 33P from [γ-33P]ATP into myelin basic protein (MBP) coated in the wells of 96-well ScintiPlates (PerkinElmer). Each well of the MBP-coated ScintiPlates held 100 μL of a solution containing 20 mM HEPES at pH 7.3, 5 mM MnCl2 (WNK1 and WNK4) or 3 mM MnCl2 (WNK2 and WNK3), 0.01% Tween-20 (WNK1, WNK3, and WNK4) or 0.02% Tween-20 (WNK2), 1 mM TCEP, 2% DMSO, 1 μM ATP (WNK1, WNK3, and WNK4) or 2 μM ATP (WNK2), 1 μCi [γ -33P]ATP (WNK1, WNK2, WNK4) or 0.25 μCi [γ-33P]ATP (WNK3), WNK kinase enzyme (5 nM WNK1, 10 nM WNK2, 5 nM WNK3, or 10 nM WNK4), and the compound at the desired concentration. The plate was sealed and mixed for 20 s at 800 rpm on a benchtop plate shaker. The plate was then placed in a 25 °C shaking incubator at 175 rpm. Reactio

[3] = target: T3, Serine/threonine-protein kinase WNK2 [166-489] (Homo sapiens, UniProt Q9Y3S1); test: WNK In Vitro Radiometric Assays; conditions: pH 7.3
T3 construct: 166-489
T3 sequence (Q9Y3S1 166-489): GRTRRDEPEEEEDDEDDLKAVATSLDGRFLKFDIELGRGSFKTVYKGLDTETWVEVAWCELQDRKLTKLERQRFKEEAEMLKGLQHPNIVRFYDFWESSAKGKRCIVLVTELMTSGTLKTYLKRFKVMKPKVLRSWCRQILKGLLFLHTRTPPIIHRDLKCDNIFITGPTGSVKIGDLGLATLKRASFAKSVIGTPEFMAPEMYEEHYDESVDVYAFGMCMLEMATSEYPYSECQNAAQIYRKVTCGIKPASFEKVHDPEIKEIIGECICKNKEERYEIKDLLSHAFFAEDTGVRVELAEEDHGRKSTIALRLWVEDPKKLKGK
Description: as §1

[4] = target: T4, Serine/threonine-protein kinase WNK3 [1-434] (Homo sapiens, UniProt Q9BYP7); test: WNK In Vitro Radiometric Assays; conditions: pH 7.3
T4 construct: 1-434
T4 sequence (Q9BYP7 1-434): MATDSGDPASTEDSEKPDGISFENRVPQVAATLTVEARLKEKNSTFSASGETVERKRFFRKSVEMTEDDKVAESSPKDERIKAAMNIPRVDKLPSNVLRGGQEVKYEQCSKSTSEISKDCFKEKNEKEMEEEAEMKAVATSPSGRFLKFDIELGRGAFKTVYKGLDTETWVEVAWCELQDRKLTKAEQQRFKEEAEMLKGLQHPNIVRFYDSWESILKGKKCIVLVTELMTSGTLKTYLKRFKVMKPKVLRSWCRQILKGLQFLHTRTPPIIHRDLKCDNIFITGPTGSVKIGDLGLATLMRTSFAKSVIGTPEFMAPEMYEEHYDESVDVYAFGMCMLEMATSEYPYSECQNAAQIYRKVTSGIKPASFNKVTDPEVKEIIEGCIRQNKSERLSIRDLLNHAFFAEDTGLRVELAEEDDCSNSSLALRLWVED
Description: as §1

[5] = target: T1, Serine/threonine-protein kinase WNK1 [1-491]; test: WNK In Vitro Radiometric Assays; conditions: pH 7.3
Description: as §1

T1 sequence (Q9H4A3 1-491): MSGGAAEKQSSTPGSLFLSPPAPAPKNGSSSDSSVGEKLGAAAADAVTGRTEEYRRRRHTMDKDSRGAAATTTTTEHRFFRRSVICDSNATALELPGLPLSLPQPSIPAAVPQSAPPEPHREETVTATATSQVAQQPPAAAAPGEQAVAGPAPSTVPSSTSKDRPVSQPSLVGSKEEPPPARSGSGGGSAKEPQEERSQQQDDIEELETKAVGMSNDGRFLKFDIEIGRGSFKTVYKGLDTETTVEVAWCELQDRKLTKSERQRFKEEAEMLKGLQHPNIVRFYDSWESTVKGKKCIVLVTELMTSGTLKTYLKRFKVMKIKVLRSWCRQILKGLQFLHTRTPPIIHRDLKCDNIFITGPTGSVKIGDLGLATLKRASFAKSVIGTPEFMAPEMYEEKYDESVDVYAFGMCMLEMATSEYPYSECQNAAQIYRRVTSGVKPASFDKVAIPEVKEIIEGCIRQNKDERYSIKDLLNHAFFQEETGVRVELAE

Compound: CNc1nc(-c2ccc3c(c2)CCN3C(=O)c2ccccc2OCc2ccc(Cl)cc2)cs1 [(2-((4-Chlorobenzyl)oxy)phenyl)(5-(2-(methylamino)thiazol-4-yl)indolin-1-yl)methanone (Compound 2)]
- IC50 [1]: 0.18 µM and 0.15 µM
- IC50 [2]: 0.187 µM
- IC50 [3]: 0.05 µM
- IC50 [4]: 0.377 µM
- IC50 [5]: 0.064 µM
